One series has as its system CD34+ cells. In words: In vitro colony-forming cell (CFC) assay. The class given is cell-based, human. The protocol: Assays for in vitro colony-forming cells (CFCs) were performed by plating sorted GFP positive CD34+ cells (1×10^4 per dish) in triplicates in complete methylcellulose medium (Methocult G F, H4434; Stem Cell Technologies), which contains a mixture of recombinant human cytokines (SCF, IL-3, GM-CSF, and erythropoietin). Colonies were counted after 14 days of incubation at 37° C. and classified according to standard criteria.
Human BW CD34+ cells were obtained as described in Example 1. These cells were transfected with pCS2-GFP or pCS2-GFPVentX plasmid using the Human CD34+ cell Nucleofector Kit (Lonza) as described above. GFP-positive cells were sorted by FACSAria high-speed sorter after transfected for 24 hours.

Another series deals with BW CD34+ cells. Put plainly: Cytokine supplemented stroma-free liquid culture of CD34+ cells (cell counts, FACS). It is filed as cell-based, human.
A further series deals with VentX. In words: Quantitative (RT-)PCR of VentX expression in CD34+ cells. It is filed as cell-based, human. An excerpt:
Bone marrow (BW) samples were obtained from discarded femoral head tissue after hip replacement surgery from Brigham and Women's Hospital, with institutional IRB approval. After Ficoll separation of mononuclear cells, CD34+ cells were enriched using magnetically activated cell sorting CD34^+ progenitor kit (Miltenyi Biotec). The purity of the BW CD34+ cells was over 95%, as assessed by flow cytometry as described in Rizo et al., 2008.
Total RNA was isolated by the TRIzol method, and same amount of RNA was used for first-strand cDNA synthesis with SuperSript First-Strand Synthesis System (Invitrogen) according to the manufacturer's protocol. To determine VentX mRNA level, the cDNA was then used for real-time PCR of VentX with primers: 5′-CCGTCAGCATCAAGGAGG-3′ (SEQ ID NO: 19) and 5′-CTGGACCTCTGAGAGCTGC-3′ (SEQ ID NO: 20). Real-time PCR was also performed with SYBR Green on a LightCycler® 480 system (480 Real-Time PCR System; Roche).
Briefly, the lentiviral vector pHAGE-CMV-eGFPW that expresses a shRNA targeting VentX (pHAGE-shVentX) was used for the transduction of bone marrow CD34+ cells. This lentiviral vector contains an internal ribosome entry site (IRES) that allows simultaneous expression of GFP to monitor transduction rate or for cell sorting. The corresponding DNA sequence of VentX shRNA is SEQ ID NO: 12 or 14. […]

Another series deals with human CD34+ cells. In words: SR1-mediated expansion of human CD34+ cells. The class given is cell-based.
The mark [1] stands for this setting: colonies counted after 14 days, vs GFP control.

As for “siVentX: short oligonucleotides targeting VentX, siRNA SEQ ID NO: 5 (UUCAGAAUCGCCGCAUGAAACACAAACGG) (listed as RNA, chemistry not given here)”, the “increase in total number of progeny cells” value with CD34+ cells (based on the CFC assay) is listed as approximately 2 fold. Further, in the series with CD34+ cells (setting [1]), the “increase in formation of BFU-E/CFU-E colonies” value is approximately 2 fold and the “increase in formation of CFU-GM colonies” value is listed as approximately 2 fold. The “expansion of HSCs in comparison with siGFP-transfected cells” value with BW CD34+ cells (2 weeks culture) was approximately 2 fold. In the series on BW CD34+ cells (siRNA-transfected cells), the “percentage of CD34+ cells” value is reported as “an increase”. Also, in the series with VentX (quantitative PCR / RT-PCR), the “knockdown of VentX in CD34+ cells” value is reported as approximately 70%.
For the compound `CC(C)n1cnc2c(NCCc3ccc(O)cc3)nc(-c3csc4ccccc34)nc21` [SR1, StemRegenin 1, reference compound], the “expansion of CD34+ cells” value in the series on human CD34+ cells is “increased”. Moreover, the “expression of VentX in the CD34+ cells” value with VentX was “inhibited”.

The record behind these values is patent US9226942B2, “Expanding hematopoietic stem cells” (priority 2010, dated 2016).
